Laboratory results from patent US11518739B2, “Sulfonamide carboxamide compounds” (Inflazome Limited, priority 2017, dated 2022).
Where a name gives a salt, the structure may show the parent alone.

Columns and labels:
NLRP3 [1] = biological target: T1, NLRP3 (Homo sapiens, UniProt Q96P20); assay: THP-1 cells pyroptosis assay (LPS-primed, nigericin-triggered, resazurin readout); type: cell-based; parameters: Seed THP-1 cells (25,000 cells/well) containing 1.0 μg/ml LPS in 40 μl of RPMI medium; host or cells: THP-1 cells, LPS-primed, nigericin-triggered; conditions: NLRP3 inhibitory activity in THP-1 cells, 1.0 μg/ml LPS, 5 μM nigericin
T1 sequence (Q96P20 whole entry): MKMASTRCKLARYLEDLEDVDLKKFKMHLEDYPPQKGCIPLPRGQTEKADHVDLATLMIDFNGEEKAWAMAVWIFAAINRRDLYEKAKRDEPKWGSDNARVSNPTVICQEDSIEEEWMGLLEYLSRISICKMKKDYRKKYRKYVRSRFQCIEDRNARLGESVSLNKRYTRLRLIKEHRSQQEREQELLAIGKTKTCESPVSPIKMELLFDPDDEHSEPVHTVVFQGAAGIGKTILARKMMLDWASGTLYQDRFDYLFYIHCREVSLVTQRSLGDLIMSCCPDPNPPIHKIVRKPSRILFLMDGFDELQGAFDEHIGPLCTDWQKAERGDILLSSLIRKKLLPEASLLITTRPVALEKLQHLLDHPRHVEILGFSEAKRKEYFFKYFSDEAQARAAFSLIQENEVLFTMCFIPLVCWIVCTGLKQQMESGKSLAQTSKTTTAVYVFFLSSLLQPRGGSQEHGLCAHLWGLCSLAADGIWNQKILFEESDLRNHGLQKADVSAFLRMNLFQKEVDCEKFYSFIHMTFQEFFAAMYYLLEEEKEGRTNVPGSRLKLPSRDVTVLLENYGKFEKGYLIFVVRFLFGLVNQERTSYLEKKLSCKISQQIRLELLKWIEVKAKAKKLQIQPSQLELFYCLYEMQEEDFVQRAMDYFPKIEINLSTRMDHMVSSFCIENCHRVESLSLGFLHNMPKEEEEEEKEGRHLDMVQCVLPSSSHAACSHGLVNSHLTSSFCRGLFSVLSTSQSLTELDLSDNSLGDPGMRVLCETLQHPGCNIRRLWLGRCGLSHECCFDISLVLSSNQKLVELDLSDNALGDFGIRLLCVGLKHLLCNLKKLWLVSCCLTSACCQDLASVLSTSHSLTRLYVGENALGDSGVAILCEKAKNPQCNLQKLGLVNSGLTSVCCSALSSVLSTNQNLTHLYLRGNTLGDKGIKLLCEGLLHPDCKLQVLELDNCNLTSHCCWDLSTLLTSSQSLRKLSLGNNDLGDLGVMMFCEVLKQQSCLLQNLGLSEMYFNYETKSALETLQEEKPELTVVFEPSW
Protocol: THP-1 cells (ATCC #TIB-202) were grown in RPMI containing L-glutamine (Gibco #11835) supplemented with ImM sodium pyruvate (Sigma #S8636) and penicillin (100 units/ml)/streptomycin (0.1 mg/ml) (Sigma #P4333) in 10% Fetal Bovine Serum (FBS) (Sigma #F0804). The cells were routinely passaged and grown to confluency ([…]). On the day of the experiment, THP-1 cells were harvested and resuspended into RPMI medium (without FBS). The cells were then counted and viability (>90%) checked by Trypan blue (Sigma #T8154). Appropriate dilutions were made to give a concentration of 625,000 cells/ml. To this diluted cell solution was added LPS (Sigma #L4524) to give a 1 μg/ml Final Assay Concentration (FAC). […] of the final preparation was aliquoted into each well of a 96-well plate. The plate thus prepared was used for compound screening.
The following method step-by-step assay was followed for compound screening. • 1. Seed THP-1 cells (25,000 cells/well) containing 1.0 μg/ml LPS in 40 μl of RPMI medium (without FBS) in 96-well, black walled, clear bottom cell culture plates coated with poly-D-lysine (VWR #734-0317) • 2. Add 5 μl compound (8 points half-log dilution, with 10 μM top dose) or vehicle (DMSO 0.1% FAC) to the appropriate wells • 3. Incubate for 3 hrs at 37° C. in 5% CO2 • 4. Add 5 μl nigericin (Sigma #N7143) (FAC 5 μM) to all wells • 5. Incubate for 1 hr at 37° C. and 5% CO2 • 6. At the end of the incubation period, spin plates at 300×g for 3 mins and remove supernatant • 7. Then add 50 μl of resazurin (Sigma #R7017) (FAC 100 μM resazurin in RPMI medium without FBS) and incubate plates for a further 1-2 hrs at 37° C. and 5% CO2 • 8. Plates were read in an Envision reader at Ex 560 nm and Em 590 nm • 9. IC50 data is fitted to a non-linear regression equation (log inhibitor vs response-variable slope 4-parameters)

NLRP3 [2] = biological target: T1, NLRP3; assay: Human whole blood IL-1β release assay (LPS + nigericin, AlphaLisa); type: cell-based; parameters: Plate out 80 μl of whole blood containing 1 μg/ml of LPS in 96-well, clear bottom cell culture plate; from tissue; host or cells: human whole blood from healthy donors (Li-heparin); conditions: NLRP3 inhibitory activity in human whole blood, 1 μg/ml LPS, 10 μM nigericin, read-out: HWB IC50
Protocol: For systemic delivery, the ability to inhibit NLRP3 when the compounds are present within the bloodstream is of great importance. For this reason, the NLRP3 inhibitory activity of a number of compounds in human whole blood was investigated in accordance with the following protocol.
Human whole blood in Li-heparin tubes was obtained from healthy donors from a volunteer donor panel. • 1. Plate out 80 μl of whole blood containing 1 μg/ml of LPS in 96-well, clear bottom cell culture plate (Corning #3585) • 2. Add 10 μl compound (8 points half-log dilution with 10 μM top dose) or vehicle (DMSO 0.1% FAC) to the appropriate wells • 3. Incubate for 3 hrs at 37° C., 5% CO2 • 4. Add 10 μl nigericin (Sigma #N7143) (10 μM FAC) to all wells • 5. Incubate for 1 hr at 37° C., 5% CO2 • 6. At the end of the incubation period, spin plates at 300×g for 5 mins to pellet cells and remove 20 μl of supernatant and add to 96-well v-bottom plates for IL-1β analysis (note: these plates containing the supernatants can be stored at −80° C. to be analysed at a later date) • 7. IL-1β was measured according to the manufacturer protocol (Perkin Elmer-AlphaLisa IL-1 Kit AL220F-5000) • 8. IC50 data is fitted to a non-linear regression equation (log inhibitor vs response-variable slope 4-parameters)

Row | Compound | IC50 (NLRP3 [1]) [nM] | IC50 (NLRP3 [2]) [nM]
1 | O=C(Nc1c2c(cc3c1CCC3)CCC2)NS(=O)(=O)Cc1ccccc1 [Example 1, N-((1,2,3,5,6,7-Hexahydro-s-indacen-4-yl)carbamoyl)-1-phenyl Methanesulfonamide, Potassium Salt] | ≤ 1000 | ≤ 5000
2 | CC(C)CS(=O)(=O)NC(=O)Nc1c2c(cc3c1CCC3)CCC2 [Example 2, N-((1,2,3,5,6,7-Hexahydro-s-indacen-4-yl)carbamoyl)-2-methylpropane-1-sulfonamide, Potassium Salt] | ≤ 1000 | –
3 | C=CS(=O)(=O)NC(=O)Nc1c2c(cc3c1CCC3)CCC2 [Example 3, N-((1,2,3,5,6,7-Hexahydro-s-indacen-4-yl)carbamoyl)ethenesulfonamide] | ≤ 1000 | ≤ 5000
4 | O=C(Nc1c2c(cc3c1CCC3)CCC2)NS(=O)(=O)Cc1cc(Cl)cc(Cl)c1 [Example 4, 1-(3,5-Dichlorophenyl)-N-((1,2,3,5,6,7-hexahydro-s-indacen-4-yl)carbamoyl)methanesulfonamide, Sodium Salt] | ≤ 1000 | > 10000
5 | O=C(Nc1c2c(cc3c1CCC3)CCC2)NS(=O)(=O)Cc1ccc(Cl)cc1 [Example 5, 1-(4-Chlorophenyl)-N-((1,2,3,5,6,7-hexahydro-s-indacen-4-yl)carbamoyl)methanesulfonamide, Sodium Salt] | ≤ 1000 | 5000 to 7500
6 | O=C(Nc1c2c(cc3c1CCC3)CCC2)NS(=O)(=O)Cc1ccc(Cl)c(Cl)c1 [Example 6, 1-(3,4-Dichlorophenyl)-N-((1,2,3,5,6,7-hexahydro-s-indacen-4-yl)carbamoyl)methanesulfonamide, Sodium Salt] | ≤ 1000 | > 10000
7 | O=C(Nc1c2c(cc3c1CCC3)CCC2)NS(=O)(=O)Cc1ccc(F)cc1 [Example 7, 1-(4-Fluorophenyl)-N-((1,2,3,5,6,7-hexahydro-s-indacen-4-yl)carbamoyl)methanesulfonamide, Sodium Salt] | ≤ 1000 | ≤ 5000
8 | N#Cc1ccc(CS(=O)(=O)NC(=O)Nc2c3c(cc4c2CCC4)CCC3)cc1 [Example 8, 1-(4-Cyanophenyl)-N-((1,2,3,5,6,7-hexahydro-s-indacen-4-yl)carbamoyl)methanesulfonamide, Sodium Salt] | ≤ 1000 | ≤ 5000
9 | O=C(Nc1c2c(cc3c1CCC3)CCC2)NS(=O)(=O)Cc1ccccc1C(F)(F)F [Example 16, N-((1,2,3,5,6,7-Hexahydro-s-indacen-4-yl)carbamoyl)-1-(2-(trifluoromethyl)phenyl)methanesulfonamide, Sodium Salt] | ≤ 1000 | –
10 | O=C(Nc1c2c(cc3c1CCC3)CCC2)NS(=O)(=O)Cc1ccccc1Br [Example 17, 1-(2-Bromophenyl)-N-((1,2,3,5,6,7-hexahydro-s-indacen-4-yl)carbamoyl)methanesulfonamide, Sodium Salt] | ≤ 1000 | –
11 | COC(=O)c1ccccc1CS(=O)(=O)NC(=O)Nc1c2c(cc3c1CCC3)CCC2 [Example 18, Methyl 2-((N-((1,2,3,5,6,7-hexahydro-s-indacen-4-yl)carbamoyl)sulfamoyl)methyl)benzoate] | ≤ 1000 | –
12 | O=C(Nc1c(-c2ccncc2)cc(F)c2c1CCC2)NS(=O)(=O)Cc1ccccc1 [Example 25, N-((7-Fluoro-5-(pyridin-4-yl)-2,3-dihydro-1H-inden-4-yl)carbamoyl)-1-phenylmethanesulfonamide] | 2000 to 10000 | –
13 | O=C(Nc1c(-c2ccncc2)cc(F)c2c1CCC2)NS(=O)(=O)CCc1ccccc1 [Example 33, N-((7-Fluoro-5-(pyridin-4-yl)-2,3-dihydro-1H-inden-4-yl)carbamoyl)-2-phenylethanesulfonamide] | – | 5000 to 7500
14 | CC(C)c1cc(F)cc(-c2ccnc(C#N)c2)c1NC(=O)NS(=O)(=O)C(C)c1ccccc1 (stereo not drawn) [Example 34, N-((2-(2-Cyanopyridin-4-yl)-4-fluoro-6-isopropylphenyl)carbamoyl)-1-phenylethanesulfonamide] | 2000 to 10000 | –
